Laboratory results taken from patent US10206394B2, “Herbicidal compounds” (Syngenta Participations AG, priority 2014, dated 2019).
Read-outs that look alike come from different tables or passages of the source.

Legend:
Assay in all cases: Glasshouse assay for herbicidal activity (pre- and post-emergence), percentage phytotoxicity
Format in all cases: in vivo
[1] = test system: Alopecurus myosuroides (ALOMY); details: Alopecurus myosuroides
Procedure, shortened: (§1)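 Visual phytotoxicity score, 0% = undamaged to 100% = total kill, read 20 days after treatment for PRE and 15 days for POST. Pots of standard soil; treatment at day 1 (PRE) or roughly day 12 (POST). Glasshouse: 16 h photoperiod, 65% RH, 24/18 or 20/16 °C by climate type.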

Avena fatua (AVEFA) = details: Avena fatua
Procedure, shortened: as §1

Lolium perenne (LOLPE) = details: Lolium perenne
Procedure, shortened: as §1

[2] = test system: Echinochloa crus-galli (ECHCG); details: Echinochloa crus-galli
Procedure, shortened: as §1

[3] = post-emergence, 360 h, POST-emergence, rate 250 g/ha, visual score 15 DAA (100%=total damage, 0%=no damage), read-out: Post-emergence herbicidal activity (percentage phytotoxicity) ALOMY POST
[4] = pre-emergence, 480 h, PRE-emergence, rate 250 g/ha, visual score 20 DAA (100%=total damage, 0%=no damage), read-out: Pre-emergence herbicidal activity (percentage phytotoxicity) ALOMY PRE
[5] = post-emergence, 360 h, POST-emergence, rate 250 g/ha, visual score 15 DAA (100%=total damage, 0%=no damage), read-out: Post-emergence herbicidal activity (percentage phytotoxicity) AVEFA POST
[6] = pre-emergence, 480 h, PRE-emergence, rate 250 g/ha, visual score 20 DAA (100%=total damage, 0%=no damage), read-out: Pre-emergence herbicidal activity (percentage phytotoxicity) AVEFA PRE
[7] = post-emergence, 360 h, POST-emergence, rate 250 g/ha, visual score 15 DAA (100%=total damage, 0%=no damage), read-out: Post-emergence herbicidal activity (percentage phytotoxicity) LOLPE POST
[8] = pre-emergence, 480 h, PRE-emergence, rate 250 g/ha, visual score 20 DAA (100%=total damage, 0%=no damage), read-out: Pre-emergence herbicidal activity (percentage phytotoxicity) LOLPE PRE
[9] = post-emergence, 360 h, POST-emergence, rate 250 g/ha, visual score 15 DAA (100%=total damage, 0%=no damage), read-out: Post-emergence herbicidal activity (percentage phytotoxicity) ECHCG POST
[10] = pre-emergence, 480 h, PRE-emergence, rate 250 g/ha, visual score 20 DAA (100%=total damage, 0%=no damage), read-out: Pre-emergence herbicidal activity (percentage phytotoxicity) ECHCG PRE
[11] = post-emergence, 360 h, Rate 250 g/ha, post-emergence, visual assessment 15 DAA, 100%=total damage, 0%=no damage, read-out: Post-emergence herbicidal activity (percentage phytotoxicity) ALOMY POST
[12] = pre-emergence, 480 h, Rate 250 g/ha, pre-emergence, visual assessment 20 DAA, 100%=total damage, 0%=no damage, read-out: Pre-emergence herbicidal activity (percentage phytotoxicity) ALOMY PRE
[13] = post-emergence, 360 h, Rate 250 g/ha, post-emergence, visual assessment 15 DAA, 100%=total damage, 0%=no damage, read-out: Post-emergence herbicidal activity (percentage phytotoxicity) AVEFA POST
[14] = pre-emergence, 480 h, Rate 250 g/ha, pre-emergence, visual assessment 20 DAA, 100%=total damage, 0%=no damage, read-out: Pre-emergence herbicidal activity (percentage phytotoxicity) AVEFA PRE
[15] = post-emergence, 360 h, Rate 250 g/ha, post-emergence, visual assessment 15 DAA, 100%=total damage, 0%=no damage, read-out: Post-emergence herbicidal activity (percentage phytotoxicity) LOLPE POST
[16] = pre-emergence, 480 h, Rate 250 g/ha, pre-emergence, visual assessment 20 DAA, 100%=total damage, 0%=no damage, read-out: Pre-emergence herbicidal activity (percentage phytotoxicity) LOLPE PRE
[17] = post-emergence, 360 h, Rate 250 g/ha, post-emergence, visual assessment 15 DAA, 100%=total damage, 0%=no damage, read-out: Post-emergence herbicidal activity (percentage phytotoxicity) ECHCG POST
[18] = pre-emergence, 480 h, Rate 250 g/ha, pre-emergence, visual assessment 20 DAA, 100%=total damage, 0%=no damage, read-out: Pre-emergence herbicidal activity (percentage phytotoxicity) ECHCG PRE

Compound	pest or weed control at 250 g/ha [1, 3] [%]	pest or weed control at 250 g/ha [1, 4] [%]	pest or weed control at 250 g/ha (Avena fatua (AVEFA); [5]) [%]	pest or weed control at 250 g/ha (Avena fatua (AVEFA); [6]) [%]	pest or weed control at 250 g/ha (Lolium perenne (LOLPE); [7]) [%]	pest or weed control at 250 g/ha (Lolium perenne (LOLPE); [8]) [%]	pest or weed control at 250 g/ha [2, 9] [%]	pest or weed control at 250 g/ha [2, 10] [%]	pest or weed control at 250 g/ha [1, 11] [%]	pest or weed control at 250 g/ha [1, 12] [%]	pest or weed control at 250 g/ha (Avena fatua (AVEFA); [13]) [%]	pest or weed control at 250 g/ha (Avena fatua (AVEFA); [14]) [%]	pest or weed control at 250 g/ha (Lolium perenne (LOLPE); [15]) [%]	pest or weed control at 250 g/ha (Lolium perenne (LOLPE); [16]) [%]	pest or weed control at 250 g/ha [2, 17] [%]	pest or weed control at 250 g/ha [2, 18] [%]
Cc1cc(-c2ccc(Br)cn2)cc(C)c1C1C(=O)CC(CC(=O)NC(C)(C)C)C1=O (stereo not drawn) [Compound B322]	100	90	100	70	100	90	100	90								
CCNC(=O)CC1CC(=O)C(c2c(C)cc(-c3ccc(Br)cn3)cc2C)C1=O (stereo not drawn) [Compound B323]	100	100	100	90	100	100	100	100								
COc1ccc(CNC(=O)CC2CC(=O)C(c3c(C)cc(-c4ccc(C#N)cn4)cc3C)C2=O)cc1 (stereo not drawn) [Compound B324]	70	30	90	0	80	60	100	30								
COCC(C)(C)NC(=O)CC1CC(=O)C(c2c(C)cc(-c3ncc(Cl)cc3F)cc2C)C1=O (stereo not drawn) [Compound B325]	100	100	100	70	100	100	100	100								
Cc1cc(-c2ncc(F)cn2)cc(C)c1C1C(=O)CC(CC(=O)NC/C=C\Br)C1=O (stereo not drawn) [Compound B326]	100	100	100	80	100	100	100	100								
COCC(C)(C)NC(=O)CC1CC(=O)C(c2c(C)cc(-c3ncc(F)cn3)cc2C)C1=O (stereo not drawn) [Compound B327]	100	100	100	80	90	100	100	100								
C=CC(C)NC(=O)CC1CC(=O)C(c2c(C)cc(-c3ncc(F)cn3)cc2C)C1=O (stereo not drawn) [Compound B328]	100	100	100	100	100	100	100	100								
COCC(C)(C)NC(=O)CC1CC(=O)C(c2c(C)cc(-c3ncc(F)cc3F)cc2C)C1=O (stereo not drawn) [Compound B329]	100	100	100	80	100	100	100	100								
C=CC(C)NC(=O)CC1CC(=O)C(c2c(C)cc(-c3ncc(F)cc3F)cc2C)C1=O (stereo not drawn) [Compound B330]	100	100	100	100	100	100	100	100								
Cc1cc(-c2ncc(F)cn2)cc(C)c1C1C(=O)CC(CC(=O)N(C)C(C)(C)C)C1=O (stereo not drawn) [Compound B331]	90	100	100	90	100	100	100	100								
COCC(C)NC(=O)CC1CC(=O)C(c2c(C)cc(-c3ncc(F)cn3)cc2C)C1=O (stereo not drawn) [Compound B332]	100	100	100	100	100	100	100	100								
C#CCNC(=O)CC1CC(=O)C(c2c(C)cc(-c3ncc(F)cn3)cc2C)C1=O (stereo not drawn) [Compound B333]	100	100	40	100	90	100	100	100								
C#CCN(C)C(=O)CC1CC(=O)C(c2c(C)cc(-c3ncc(F)cn3)cc2C)C1=O (stereo not drawn) [Compound B334]									100	100	100	100	90	100	100	100
COCC(C)NC(=O)CC1CC(=O)C(c2c(C)cc(-c3ncc(F)cc3F)cc2C)C1=O (stereo not drawn) [Compound B335]									100	100	100	100	100	100	100	90
C#CCNC(=O)CC1CC(=O)C(c2c(C)cc(-c3ncc(F)cc3F)cc2C)C1=O (stereo not drawn) [Compound B336]									100	100	100	100	100	100	100	100
Cc1cc(-c2ncc(Cl)cn2)cc(C)c1C1C(=O)CC(CC(=O)NCc2cccc(F)c2)C1=O (stereo not drawn) [Compound B337]									100	90	100	90	100	90	100	90
Cc1cc(-c2ncc(Cl)cn2)cc(C)c1C1C(=O)CC(CC(=O)N(C)Cc2cccc(F)c2)C1=O (stereo not drawn) [Compound B338]									100	100	100	80	90	100	100	100
Cc1cc(-c2ncc(Cl)cn2)cc(C)c1C1C(=O)CC(CC(=O)NCc2cccc(Br)c2)C1=O (stereo not drawn) [Compound B339]									100	40	100	70	100	90	100	100
